# Measurements published in the supplement of paper PMC10307832.
# Tests used:
# Test in all cases: relative viability (nuclei count vs DMSO), 5 days (fraction); higher = more cells survive
# [1] = system: EPLC-272H
# In short: (§1)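 Medians of duplicate plates are given as relative viability. That measure is the nuclei count in treated wells divided by the count in vehicle wells. Counts were taken on 4× images of lung cancer cell lines in 1536-well plates, 5 days after pin-tool dosing the day after seeding with one drug alone or a fixed anchor-drug dose plus five library-drug doses (not always all listed) in √10 steps.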
# [2] = system: NCI-H358
# In short: as §1
# [3] = system: HCC-827
# In short: as §1
# [4] = system: LU99A
# In short: as §1
# [5] = system: NCI-H2087
# In short: as §1
# [6] = system: NCI-H2085
# In short: as §1
# [7] = system: NCI-H1395
# In short: as §1
# [8] = system: NCI-H1437
# In short: as §1
# [9] = system: NCI-H1666
# In short: as §1
# [10] = system: H3255
# In short: as §1
# [11] = system: HOP-62
# In short: as §1
# [12] = system: HCC-44
# In short: as §1
# [13] = system: PC-3 [JPC-3]
# In short: as §1
# [14] = system: NCI-H2342
# In short: as §1
# [15] = system: NCI-H647
# In short: as §1
# [16] = system: 201T
# In short: as §1
# [17] = system: COR-L 105
# In short: as §1
# [18] = system: BEN
# In short: as §1
# [19] = system: NCI-H1975
# In short: as §1
# [20] = system: LOU-NH91
# In short: as §1
# [21] = system: LCLC-97TM1
# In short: as §1
# [22] = system: EKVX
# In short: as §1
# [23] = system: SW 1573
# In short: as §1
smiles,measurement,setting,value
CC1(C)CCC(c2ccc(Cl)cc2)=C(CN2CCN(c3ccc(C(=O)NS(=O)(=O)c4ccc(N[C@H](CCN5CCOCC5)CSc5ccccc5)c(S(=O)(=O)C(F)(F)F)c4)cc3)CC2)C1 [Navitoclax] + O=C(c1cc(Cc2n[nH]c(=O)c3ccccc23)ccc1F)N1CCN(C(=O)C2CC2)CC1 [Olaparib] (partner 8 µM),relative viability,[1]; first compound 0.005 µM,0.877
same,relative viability,[1]; first compound 0.01581 µM,0.79
same,relative viability,[1]; first compound 0.05 µM,0.644
same,relative viability,[1]; first compound 0.1581 µM,0.714
same,relative viability,[1]; first compound 0.5 µM,1.18
same,relative viability,[2]; first compound 0.005 µM,0.566
same,relative viability,[2]; first compound 0.01581 µM,0.751
same,relative viability,[2]; first compound 0.05 µM,0.663
same,relative viability,[2]; first compound 0.1581 µM,0.536
same,relative viability,[2]; first compound 0.5 µM,0.585
same,relative viability,[3]; first compound 0.005 µM,0.714
same,relative viability,[3]; first compound 0.01581 µM,0.669
same,relative viability,[3]; first compound 0.05 µM,0.531
same,relative viability,[3]; first compound 0.1581 µM,0.638
same,relative viability,[3]; first compound 0.5 µM,0.632
same,relative viability,[4]; first compound 0.005 µM,0.257
same,relative viability,[4]; first compound 0.01581 µM,0.275
same,relative viability,[4]; first compound 0.1581 µM,0.269
same,relative viability,[4]; first compound 0.5 µM,0.276
same,relative viability,[5]; first compound 0.005 µM,0.69
same,relative viability,[5]; first compound 0.01581 µM,0.632
same,relative viability,[5]; first compound 0.1581 µM,0.638
same,relative viability,[5]; first compound 0.5 µM,0.598
same,relative viability,[6]; first compound 0.005 µM,0.74
same,relative viability,[6]; first compound 0.01581 µM,0.864
same,relative viability,[6]; first compound 0.05 µM,0.596
same,relative viability,[6]; first compound 0.1581 µM,0.746
same,relative viability,[6]; first compound 0.5 µM,0.815
same,relative viability,[7]; first compound 0.005 µM,0.456
same,relative viability,[7]; first compound 0.01581 µM,0.495
same,relative viability,[7]; first compound 0.05 µM,0.441
same,relative viability,[7]; first compound 0.1581 µM,0.428
same,relative viability,[7]; first compound 0.5 µM,0.473
same,relative viability,[8]; first compound 0.005 µM,0.619
same,relative viability,[8]; first compound 0.01581 µM,0.659
same,relative viability,[8]; first compound 0.05 µM,0.655
same,relative viability,[8]; first compound 0.1581 µM,0.629
same,relative viability,[8]; first compound 0.5 µM,0.656
same,relative viability,[9]; first compound 0.005 µM,0.749
same,relative viability,[9]; first compound 0.01581 µM,0.71
same,relative viability,[9]; first compound 0.05 µM,0.683
same,relative viability,[9]; first compound 0.1581 µM,0.765
same,relative viability,[9]; first compound 0.5 µM,0.822
same,relative viability,[10]; first compound 0.005 µM,0.563
same,relative viability,[10]; first compound 0.01581 µM,0.626
same,relative viability,[10]; first compound 0.05 µM,0.57
same,relative viability,[10]; first compound 0.1581 µM,0.57
same,relative viability,[10]; first compound 0.5 µM,0.506
same,relative viability,[11]; first compound 0.005 µM,0.211
same,relative viability,[11]; first compound 0.01581 µM,0.434
same,relative viability,[11]; first compound 0.05 µM,0.507
same,relative viability,[11]; first compound 0.1581 µM,0.473
same,relative viability,[11]; first compound 0.5 µM,0.432
same,relative viability,[12]; first compound 0.005 µM,0.971
same,relative viability,[12]; first compound 0.01581 µM,0.98
same,relative viability,[12]; first compound 0.05 µM,0.887
same,relative viability,[12]; first compound 0.1581 µM,0.943
same,relative viability,[12]; first compound 0.5 µM,0.932
same,relative viability,[13]; first compound 0.005 µM,1.1
same,relative viability,[13]; first compound 0.01581 µM,1.14
same,relative viability,[13]; first compound 0.05 µM,1.22
same,relative viability,[13]; first compound 0.1581 µM,1.07
same,relative viability,[13]; first compound 0.5 µM,0.871
same,relative viability,[14]; first compound 0.005 µM,0.421
same,relative viability,[14]; first compound 0.01581 µM,0.44
same,relative viability,[14]; first compound 0.05 µM,0.322
same,relative viability,[14]; first compound 0.1581 µM,0.476
same,relative viability,[14]; first compound 0.5 µM,0.456
same,relative viability,[15]; first compound 0.005 µM,0.47
same,relative viability,[15]; first compound 0.01581 µM,0.605
same,relative viability,[15]; first compound 0.05 µM,0.498
same,relative viability,[15]; first compound 0.1581 µM,0.471
same,relative viability,[15]; first compound 0.5 µM,0.288
same,relative viability,[16]; first compound 0.005 µM,0.829
same,relative viability,[16]; first compound 0.01581 µM,0.871
same,relative viability,[16]; first compound 0.05 µM,0.806
same,relative viability,[16]; first compound 0.1581 µM,0.832
same,relative viability,[16]; first compound 0.5 µM,0.85
same,relative viability,[17]; first compound 0.005 µM,0.707
same,relative viability,[17]; first compound 0.01581 µM,0.749
same,relative viability,[17]; first compound 0.05 µM,0.664
same,relative viability,[17]; first compound 0.1581 µM,0.614
same,relative viability,[17]; first compound 0.5 µM,0.666
same,relative viability,[18]; first compound 0.005 µM,1.07
same,relative viability,[18]; first compound 0.01581 µM,1.06
same,relative viability,[18]; first compound 0.05 µM,0.862
same,relative viability,[18]; first compound 0.1581 µM,1.05
same,relative viability,[18]; first compound 0.5 µM,0.595
same,relative viability,[19]; first compound 0.005 µM,0.77
same,relative viability,[19]; first compound 0.01581 µM,0.854
same,relative viability,[19]; first compound 0.05 µM,0.773
same,relative viability,[19]; first compound 0.1581 µM,0.813
same,relative viability,[19]; first compound 0.5 µM,0.755
same,relative viability,[20]; first compound 0.005 µM,0.909
same,relative viability,[20]; first compound 0.01581 µM,0.928
same,relative viability,[20]; first compound 0.05 µM,0.697
same,relative viability,[20]; first compound 0.1581 µM,0.658
same,relative viability,[20]; first compound 0.5 µM,0.37
same,relative viability,[21]; first compound 0.005 µM,0.34
same,relative viability,[21]; first compound 0.01581 µM,0.599
same,relative viability,[21]; first compound 0.05 µM,0.243
same,relative viability,[21]; first compound 0.1581 µM,0.409
same,relative viability,[21]; first compound 0.5 µM,0.445
same,relative viability,[22]; first compound 0.005 µM,0.887
same,relative viability,[22]; first compound 0.01581 µM,0.994
same,relative viability,[22]; first compound 0.05 µM,0.784
same,relative viability,[22]; first compound 0.1581 µM,0.891
same,relative viability,[22]; first compound 0.5 µM,0.885
same,relative viability,[23]; first compound 0.005 µM,0.486
same,relative viability,[23]; first compound 0.01581 µM,0.528
same,relative viability,[23]; first compound 0.05 µM,0.471
same,relative viability,[23]; first compound 0.1581 µM,0.431
same,relative viability,[23]; first compound 0.5 µM,0.367
